According to ChEMBL document CHEMBL3286127, “Aminoadamantanes with persistent in vitro efficacy against H1N1 (2009) influenza A” (J Med Chem, 2014):
pEC50: −log10 of the molar value.

Experiments:
Influenza A virus [1] = test: Antiviral activity against Influenza A virus A/WS/33(H1N1) infected in MDCK cells expressing M2 S31N mutant after overnight incubation by fluorescence-based miniplaque assay; assay type: functional, organism-based
[2] = Antiviral activity against Influenza A virus (A/California/07/2009(H1N1)) infected in MDCK cells expressing M2 S31N mutant after overnight incubation by fluorescence-based miniplaque assay; assay type: functional, cell-based
Influenza A virus [3] = test: Antiviral activity against Influenza A virus (A/Puerto Rico/8/34(H1N1)) infected in MDCK cells expressing M2 V27T/S31N mutant after overnight incubation by fluorescence-based miniplaque assay; assay type: functional, organism-based, A/Puerto Rico/8/1934(H1N1)
[4] = tested on: Matrix protein 2 (Influenza A virus (A/Udorn/307/1972(H3N2))), P0DOF8 [S31N]; assay type: cell-based; details: Influenza A virus (A/California/08/2009(H1N1)); HEK293; 100 uM

Compound | pEC50 (Influenza A virus [1]) | pEC50 [2] | pEC50 (Influenza A virus [3]) | Activity [4] [%]
NC12CC3CC(CC(C3)C1)C2 [AMANTADINE] | 4.62 | 3.62 | 4.62 | 
CCCCC1(N)C2CC3CC(C2)CC1C3 (stereo not given) | 3.45 | 5.07 | 6.52 | 
NC1(c2ccccc2)C2CC3CC(C2)CC1C3 (stereo not given) | 4.07 | 4.68 | > 6.52 | 
NC1(Cc2ccccc2)C2CC3CC(C2)CC1C3 (stereo not given) | 3.55 | 5.07 | 5.92 | 
CC(C)CC1(N)C2CC3CC(C2)CC1C3 (stereo not given) | 3.68 | 5.10 | 6.52 | 
CCCC1(N)C2CC3CC(C2)CC1C3 (stereo not given) | 3.41 | 5.33 | 6.30 | 9.4
NC1C2CC3CC(C2)CC1C3 (stereo not given) | 3.96 | 3.82 | 5.42 | 16
CCC1(N)C2CC3CC(C2)CC1C3 (stereo not given) | 4.64 | 4.60 | 5.74 | 
CC1(N)C2CC3CC(C2)CC1C3 (stereo not given) | 4.72 | 4.27 | 6.40 | 
CC(N)C12CC3CC(CC(C3)C1)C2 (stereo not given) [RIMANTADINE] | 3.51 | 3.96 | 5.48 | 
CCCCCCC1(N)C2CC3CC(C2)CC1C3 (stereo not given) | 4.89 | 6.89 | 7.15 | 
